Results from patent US20240254118A1, “PRMT5 INHIBITORS AND USES THEREOF” (Gilead Sciences, Inc., priority 2022, published 2024).

What was measured:
[1] = system: SDMA signal (PRMT5 inhibition) in HCT116 MTAP-deleted cells; test: Symmetric di-methyl arginine image-based high content screen assay (SDMA assay), HCT116 MTAP-deleted; type: cell-based; conditions: SDMA assay; for EC50: Homo sapiens, HCT-116, 72 h, 3 days of treatment, cell line not given, taken as HCT116 MTAP-deleted, read-out: EC50 (SDMA assay); for EC50 selectivity (SDMA assay): taken as HCT116 WT versus MTAP-deleted
How it was run: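 HCT116 MTAP-deleted cells treated with compound until Day 3, then formalin-fixed, permeabilized and immunostained for SDMA, with DAPI nuclear counterstain. Imaged by high-content microscopy; SDMA read-out is mean Alexa 488 intensity per DAPI-defined cell, reflecting PRMT5 inhibition.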

[2] = system: HCT116 MTAP-deleted cells; test: Cell viability assay (CellTiter-Glo, 7 days), HCT116 MTAP-deleted; conditions: Homo sapiens, HCT-116, 168 h

EC50 [1] [nM]	EC50 selectivity (SDMA assay) [1]	Structure (SMILES)	CC50 [2] [nM]
< 1	50	COCCN(C)N(Cc1ccc(C(F)(F)F)cn1)C(=O)c1cc2c(cc1F)nc(N)c1cnn(C)c12 [Example 180, 4-amino-7-fluoro-N′-(2-methoxyethyl)-N′,1-dimethyl-N-((5-(trifluoromethyl)pyridin-2-yl)methyl)-1H-pyrazolo[4,3-c]quinoline-8-carbohydrazide]	< 100
1 to 5	300	CC(=O)N(C)N(Cc1ccccc1Cl)C(=O)c1ccc2nc(N)c3cnn(C)c3c2c1 [Example 183, N′-acetyl-4-amino-N-(2-chlorobenzyl)-N′,1-dimethyl-1H-pyrazolo[4,3-c]quinoline-8-carbohydrazide]	< 100
1 to 5	66	CN(C(=O)C12COC(C1)C2)N(Cc1ccc(C(F)(F)F)cn1)C(=O)c1ccc2nc(N)c3cnn(C)c3c2c1 [Example 186, 4-amino-N′,1-dimethyl-N′-(2-oxabicyclo[2.1.1]hexane-4-carbonyl)-N-[[5-(trifluoromethyl)-2-pyridyl]methyl]pyrazolo[4,3-c]quinoline-8-carbohydrazide]	100 to 1000
< 1	68	CN(C(=O)C1(F)CC1)N(Cc1ccc(C(F)(F)F)nn1)C(=O)c1cc2c(cc1F)nc(N)c1cnn(C)c12 [Example 194, 4-amino-7-fluoro-N′-(1-fluorocyclopropanecarbonyl)-N′, 1-dimethyl-N-[[6-(trifluoromethyl)pyridazin-3-yl]methyl]pyrazolo[4,3-c]quinoline-8-carbohydrazide]	< 100
< 1	146	CN(C(=O)C(F)F)N(Cc1ccc(C(F)(F)F)cn1)C(=O)c1ccc2nc(N)c3cnn(C)c3c2c1 [Example 195, 4-amino-N′-(2,2-difluoroacetyl)-N′,1-dimethyl-N-[[5-(trifluoromethyl)-2-pyridyl]methyl]pyrazolo[4,3-c]quinoline-8-carbohydrazide]	< 100
1 to 5	137	CC(=O)N(C)N(Cc1ccc2ncsc2c1)C(=O)c1ccc2nc(N)c3cnn(C)c3c2c1 [Example 196, N′-acetyl-4-amino-N-(1,3-benzothiazol-6-ylmethyl)-N′,1-dimethyl-pyrazolo[4,3-c]quinoline-8-carbohydrazide]	< 100
< 1	57	CN(C(=O)[C@@H]1CCO1)N(Cc1ccc(C(F)(F)F)cc1F)C(=O)c1ccc2nc(N)c3cnn(C)c3c2c1 [Example 198, 4-amino-N-[[2-fluoro-4-(trifluoromethyl)phenyl]methyl]-N′,1-dimethyl-N′-[(2S)-oxetane-2-carbonyl]pyrazolo[4,3-c]quinoline-8-carbohydrazide]	< 100
< 1	26	Cn1ncc2c(N)nc3ccc(C(=O)N(Cc4ccc(C(F)(F)F)cc4F)n4ccnc4)cc3c21 [Example 199, 4-amino-N-[[2-fluoro-4-(trifluoromethyl)phenyl]methyl]-N-imidazol-1-yl-1-methyl-pyrazolo[4,3-c]quinoline-8-carboxamide]	< 100

The next lines start with the compound.

Structure (SMILES)	EC50 [1] [nM]	EC50 selectivity (SDMA assay) [1]	CC50 [2] [nM]
CC(=O)N(C)N(Cc1ccc(C#CC2(C(F)F)CC2)cc1F)C(=O)c1ccc2nc(N)c3cnn(C)c3c2c1 [Example 177, N′-acetyl-4-amino-N-(4-((1-(difluoromethyl)cyclopropyl)ethynyl)-2-fluorobenzyl)-N′,1-dimethyl-1H-pyrazolo[4,3-c]quinoline-8-carbohydrazide]	1 to 5	36	< 100
Cn1ncc2c(N)nc3ccc(C(=O)N(Cc4ccc(C(F)(F)F)cn4)N4CC(C(F)(F)F)OC4=O)cc3c21 (stereo not drawn) [Example 178, 4-amino-1-methyl-N-(2-oxo-5-(trifluoromethyl)oxazolidin-3-yl)-N-((5-(trifluoromethyl)pyridin-2-yl)methyl)-1H-pyrazolo[4,3-c]quinoline-8-carboxamide]	> 5	138	100 to 1000
COCCN(C)N(Cc1ccc(C(F)(F)F)cn1)C(=O)c1ccc2nc(N)c3cnn(C)c3c2c1 [Example 179, 4-amino-N′-(2-methoxyethyl)-N′,1-dimethyl-N-((5-(trifluoromethyl)pyridin-2-yl)methyl)-1H-pyrazolo[4,3-c]quinoline-8-carbohydrazide]	< 1	318	< 100
CC(=O)N(C)N(Cc1ccccc1F)C(=O)c1ccc2nc(N)c3cnn(C)c3c2c1 [Example 181, N′-acetyl-4-amino-N-(2-fluorobenzyl)-N′,1-dimethyl-1H-pyrazolo[4,3-c]quinoline-8-carbohydrazide]	1 to 5	441	100 to 1000
CC(=O)N(C)N(Cc1ccccc1F)C(=O)c1cc2c(cc1F)nc(N)c1cnn(C)c12 [Example 182, N′-acetyl-4-amino-7-fluoro-N-(2-fluorobenzyl)-N′,1-dimethyl-1H-pyrazolo[4,3-c]quinoline-8-carbohydrazide]	< 1	209	< 100
CN(C(=O)c1cccnn1)N(Cc1ccc(C(F)(F)F)cn1)C(=O)c1ccc2nc(N)c3cnn(C)c3c2c1 [Example 184, 14-amino-N′,1-dimethyl-N′-(pyridazine-3-carbonyl)-N-((5-(trifluoromethyl)pyridin-2-yl)methyl)-1H-pyrazolo[4,3-c]quinoline-8-carbohydrazide]	> 5	195	> 1000
CN(C(=O)C12CC(CO1)C2)N(Cc1ccc(C(F)(F)F)cn1)C(=O)c1ccc2nc(N)c3cnn(C)c3c2c1 [Example 185, 4-amino-N′,1-dimethyl-N′-(2-oxabicyclo[2.1.1]hexane-1-carbonyl)-N-[[5-(trifluoromethyl)-2-pyridyl]methyl]pyrazolo[4,3-c]quinoline-8-carbohydrazide]	< 1	33	< 100
COC12CC(C(=O)N(C)N(Cc3ccc(C(F)(F)F)cn3)C(=O)c3ccc4nc(N)c5cnn(C)c5c4c3)(C1)C2 [Example 187, 4-amino-N′-(3-methoxybicyclo[1.1.1]pentane-1-carbonyl)-N′,1-dimethyl-N-[[5-(trifluoromethyl)-2-pyridyl]methyl]pyrazolo[4,3-c]quinoline-8-carbohydrazide]	1 to 5	50	< 100
CN(C(=O)C12CC(C#N)(C1)C2)N(Cc1ccc(C(F)(F)F)cn1)C(=O)c1ccc2nc(N)c3cnn(C)c3c2c1 [Example 188, 4-amino-N′-(3-cyanobicyclo[1.1.1]pentane-1-carbonyl)-N′,1-dimethyl-N-[[5-(trifluoromethyl)-2-pyridyl]methyl]pyrazolo[4,3-c]quinoline-8-carbohydrazide]	> 5	62	100 to 1000
CN(C(=O)C(C)(F)F)N(Cc1ccc(C(F)(F)F)cn1)C(=O)c1ccc2nc(N)c3cnn(C)c3c2c1 [Example 189, 4-amino-N′-(2,2-difluoropropanoyl)-N′,1-dimethyl-N-[[5-(trifluoromethyl)-2-pyridyl]methyl]pyrazolo[4,3-c]quinoline-8-carbohydrazide]	< 1	13	< 100
Cn1ncc2c(N)nc3ccc(C(=O)N(Cc4ccc(C(F)(F)F)cn4)N4CC5(CC5)OC4=O)cc3c21 [Example 190, 4-amino-1-methyl-N-(5-oxo-4-oxa-6-azaspiro[2.4]heptan-6-yl)-N-[[5-(trifluoromethyl)-2-pyridyl]methyl]pyrazolo[4,3-c]quinoline-8-carboxamide]	< 1	144	< 100
Cn1ncc2c(N)nc3ccc(C(=O)N(Cc4ccc(C(F)(F)F)cn4)N4CC5(COC5)OC4=O)cc3c21 [Example 191, 4-amino-1-methyl-N-(6-oxo-2,5-dioxa-7-azaspiro[3.4]octan-7-yl)-N-[[5-(trifluoromethyl)-2-pyridyl]methyl]pyrazolo[4,3-c]quinoline-8-carboxamide]	> 5	103	100 to 1000
CN(C(=O)C1(C#N)CCC1)N(Cc1ccc(C(F)(F)F)cn1)C(=O)c1ccc2nc(N)c3cnn(C)c3c2c1 [Example 192, 4-amino-N′-(1-cyanocyclobutanecarbonyl)-N′,1-dimethyl-N-[[5-(trifluoromethyl)-2-pyridyl]methyl]pyrazolo[4,3-c]quinoline-8-carbohydrazide]	1 to 5	185	100 to 1000
CN(C(=O)C1(F)CC1)N(Cc1ccc(C(F)(F)F)nn1)C(=O)c1ccc2nc(N)c3cnn(C)c3c2c1 [Example 193, 4-amino-N′-(1-fluorocyclopropanecarbonyl)-N′,1-dimethyl-N-[[6-(trifluoromethyl)pyridazin-3-yl]methyl]pyrazolo[4,3-c]quinoline-8-carbohydrazide]	< 1	202	< 100
CN(C(=O)[C@H]1CCO1)N(Cc1ccc(C(F)(F)F)cc1F)C(=O)c1ccc2nc(N)c3cnn(C)c3c2c1 [Example 197, 4-amino-N-[[2-fluoro-4-(trifluoromethyl)phenyl]methyl]-N′,1-dimethyl-N′-[(2R)-oxetane-2-carbonyl]pyrazolo[4,3-c]quinoline-8-carbohydrazide]	< 1	61	< 100
